Measurements: paper PMC10374545, “A small molecule inhibitor of PTP1B and PTPN2 enhances T cell anti-tumor immunity” (Nature Communications, 2023)
Values joined by “and” are separate entries in the source; they are usually repeats but may differ in a detail not shown here. Identical values can stand only once.

Experiments:
[1] = biological target: T1, PTP1B (Homo sapiens, UniProt P18031); test: Jump-dilution assay; assay type: biochemical; details: 30 min preincubation, 50-fold dilution into 100 µM DiFMUP
T1 construct: PTP1B, residues 1-321; made in house; host or cells: E. coli BL21(DE3)
T1 sequence (P18031 1-321): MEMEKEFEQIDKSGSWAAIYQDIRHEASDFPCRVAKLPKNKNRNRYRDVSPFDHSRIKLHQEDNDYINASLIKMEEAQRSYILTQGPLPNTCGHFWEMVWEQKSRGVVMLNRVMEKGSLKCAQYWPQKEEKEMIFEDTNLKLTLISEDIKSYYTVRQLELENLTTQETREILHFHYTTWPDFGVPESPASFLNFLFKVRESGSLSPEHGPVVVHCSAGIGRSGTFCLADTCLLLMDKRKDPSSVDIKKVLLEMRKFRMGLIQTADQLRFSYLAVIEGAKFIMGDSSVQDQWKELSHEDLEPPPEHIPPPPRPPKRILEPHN
Procedure: (§1) The reaction was allowed to proceed for 10 min under room temperature and was quenched by addition of a 160 µM solution of bpV(Phen). The fluorescence signal was measured using a CLARIOstar Plus Microplate Spectrophotometer (BMG Labtech) using excitation and emission wavelengths of 340 nm and 450 nm, respectively. Data were fitted using Prism GraphPad 9.2.0.

[2] = biological target: T2, PTPN2 (Homo sapiens, UniProt P17706); test: Jump-dilution assay; assay type: biochemical; details: 30 min preincubation, 50-fold dilution into 100 µM DiFMUP
T2 construct: PTPN2, residues 1-387; made in house; host or cells: E. coli BL21(DE3)
T2 sequence (P17706 1-387 isoform P17706-2): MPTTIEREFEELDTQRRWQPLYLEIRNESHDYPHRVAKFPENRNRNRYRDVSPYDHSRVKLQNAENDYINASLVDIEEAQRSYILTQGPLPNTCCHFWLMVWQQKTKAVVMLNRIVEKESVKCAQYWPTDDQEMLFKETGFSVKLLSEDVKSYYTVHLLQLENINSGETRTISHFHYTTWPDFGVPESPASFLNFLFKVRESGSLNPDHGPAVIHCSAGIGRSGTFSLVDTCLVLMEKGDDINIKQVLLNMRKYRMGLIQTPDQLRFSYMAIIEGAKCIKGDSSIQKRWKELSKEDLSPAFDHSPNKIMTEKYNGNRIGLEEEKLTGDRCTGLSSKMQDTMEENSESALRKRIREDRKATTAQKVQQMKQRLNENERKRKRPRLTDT
Procedure: as §1

[3] = system: NK cells; test: NK cell activation (IFN-γ+, CD107A+) by cytokines or α-NK1.1/α-Ly49H; assay type: cell-based, mouse; details: cytokines or crosslinking NK1.1, Ly49H
Procedure: proliferation in vitro. a-b) NK cells from C57BL/6 male mice (n=3 per group) were expanded […]
µg/ml) or vehicle (1% v/v DMSO) in the absence of IL-15. a) NK cells were re-stimulated for 15 min with the indicated amounts of IL-15 and Y694 phosphorylated STAT-5 (p-STAT-5) mean fluorescence intensities (MFIs) determined by flow cytometry. b) Alternatively, NK cells were stained with carboxyfluorescein succinimidyl ester (CFSE, Invitrogen) and then re-stimulated with the indicated amounts of IL-15 for 96 h and NK cell proliferation (CFSE dilution) monitored by flow cytometry. c-d) NK cells from C57BL/6 male mice (n=3 per group) were expanded ex vivo in the presence of IL-15 and then pre-treated with CMP-182 (0.1 or 1 µg/ml) or vehicle in the absence of IL-15. NK cells were re-stimulated with either IL-12 (10 ng/ml) or IL-18 (100 ng/ml) or with α-NK1.1 or α-Ly49H for 4 h. NK cells were maintained in 10 ng/ml IL-15 throughout the 4 h incubation time. Percentages of c) IFN-γ+ and d) CD107A+ NK cells were determined by flow cytometry. In (a-d) results shown are means ± SEM and are representative of at least two independent experiments.

[4] = system: spleen; test: Spleen weight, splenocytes and splenic CD8+ EM T cell signaling in AT3-OVA tumor-bearing mice; assay type: in vivo, mouse
Procedure: Single-cell suspensions from spleens and lymph nodes were obtained as described previously. For the detection of intracellular cytokines and granzyme B, T cells were fixed and permeabilized with the BD Cytofix/Cytoperm kit according to the manufacturer’s instructions. Briefly, T cells were first surface stained with fluorophore-conjugated antibodies and then fixed followed by permeabilization on ice for 20 min. Fixed and permeabilized cells were stained for IFN-γ, TNF, and granzyme B for 45 min at room temperature. For the detection of intracellular FoxP3 the Foxp3/Transcription Factor Staining Buffer Set (eBioscience) was used according to the manufacturer’s instructions. Briefly, cells were fixed and permeabilized for 1 h on ice followed by intracellular staining at room temperature for 45 min. For the detection of serum cytokines, the BD CBA Mouse Inflammation Kit™ was used according to the manufacturers’ instructions.
Cells (1 × 10^6/10 µl) were stained with the specified antibodies on ice for 30 min in D-PBS supplemented with 2% FBS in the dark and analyzed using a Fortessa or Symphony A3 (BD Biosciences). Data was acquired using BD FACS DIVA Software v8.0.1 and analyzed using FlowJo10 (Tree Star Inc.) software. Lymphocytes were gated for eYFP^+ cells to discriminate between PTPN2 sufficient and PTPN2 negative cells after poly(I:C)-induced PTPN2-deletion in Mx1-Cre;Ptpn2^fl/fl mice. For cell quantification, known numbers of Flow-Count Fluorospheres (Beckman Coulter) were added to samples before analysis. Dead cells were excluded with propidium iodide (1 μg/ml; Sigma-Aldrich). Paraformaldehyde fixed dead cells were excluded with the LIVE/DEAD™ Fixable Near-IR Dead Cell Stain Kit (Thermo Fisher Scientific).
OVA mammary tumor cells were injected into the fourth inguinal mammary fat pads of 8 week- […]
n=8) or saline (n=8) on days (d) 6, 8, 10, 12, 14, 16, 18 and 21 after tumor cell implantation. […]
CD44hiCD62Llo CD8+ and CD4+ effector/memory (EM) T cells, CD4+CD25+FoxP3+ regulatory T cells (Tregs) and granulocytic and monocytic […]
CD8+ and CD4+ EM T cells were analysed by flow cytometry. In (a-d) representative results (means ± SEM) from at least two independent experiments are shown. In (d) significances were determined using a 1-way ANOVA Test.

[5] = splenic CD8+ EM T cells, 10 mg/kg i.v., Fig. 3E raw data, listed as CMP-182, 10 mg/kg

## CC(C)(O)CCOc1ccc2cc(O)c(N3CC(=O)NS3(=O)=O)c(F)c2c1 [Compound 182, 5-(1-Fluoro-3-hydroxy-7-(3-hydroxy-3-methylbutoxy)naphthalen-2-yl)−1,2,5-thiadiazolidin-3-one 1,1-dioxide]
[1]
  reversibility of inhibition: reversible
[2]
  reversibility of inhibition: reversible
[3]
  NK cell activation (IFNγ or CD107A expressing cells): nor did it affect
[4]; 10 mg/kg i.v.
  basal p-SFK and p-STAT-5 in splenic CD8+ effector/memory T cells: enhanced
[4]; AT3-OVA tumor-bearing mice, 10 mg/kg i.v.
  spleen weights and splenic T cell and myeloid numbers: unaltered
[4]; Figure 3C, column B, n=8
  B cells Spleen (median): 1202070, n=8
  Nk cells Spleen (median): 1062533, n=8
[4]; Figure 3E, column B, n=8
  pSFK CD8 EM (median): 356.5, n=8
  pSTAT5 CD8 EM (median): 960.5, n=8
[4]; [5]
  p-SFK MFIs, single mice: 362 and 359 and 441 and 347 and 414 and 282 and 298 and 354
  p-STAT-5 MFIs, single mice: 1043 and 825 and 973 and 931 and 1046 and 926 and 948 and 1137
